Measured values: US12565467B2, “Compounds, compositions, and methods for the treatment of inflammatory, degenerative, and neurodegenerative diseases” (Board of Supervisors of Louisiana State University and …, priority 2015, dated 2026)

Key:
Bax = Bax expression in LOX-D RPE cells under oxidative stress; format: cell-based, human
Protocol: (§1) FIG. 8. (A) Bcl-xL-upregulation by elovanoids ELV1 and ELV2 in ARPE-19 cells under stress. Bcl-xL is the antiapoptotic Bcl2 family protein. Like proapoptotic proteins Bid and Bim, the effect of elovaniod precursors on the antiapoptotic protein Bcl-xL was tested in this figure in RPE cells under OS. […] (B) Effect of NPD1, ELV1 and ELV2 on Bax expression in LOX-D cells under stress. Proapoptotic Bax was tested in this figure. […] C) VLC-PUFA and elovanoids ELV1 and ELV2 mediated effect on Bax upregulation in ARPE-19 cells under stress. In this experiment, elovanoid precursors along with VLC-PUFA were tested on the downregulation of the Bax protein in RPE cells under stress.
as §1, with “8—(A)” for “8. (A)”

[1] = test system: human retinal pigment epithelial (RPE) cells deficient in 15-LOX-D1; assay: Oxidative stress (OS) induced apoptosis / cell death in 15-LOX-1-deficient human RPE cells; format: cell-based
Description: (§2) FIG. 4. (A) Cytoprotective effects of NPD1 like compounds on OS induced apoptosis. The results shown in this figure compare the cytoprotective capacities of long chain polyunsaturated fatty acids (VLC-PUFA), elovanoids ELV1 and ELV2, and neuroprotectin D1 (NPD1) in human retinal pigment epithelial (RPE) cells deficient in 15-LOX-D1 by measuring the protection of cell deaths induced by oxidative stress (OS) by these compounds. […] (B) Elovanoid precursors protect human retinal pigment epithelial cells deficient in 15-LOX-1, unlike DHA, from oxidative stress conditions.
FIG. 5. (A) Effect of PD146176 on VLC-PUFA-inhibited apoptosis induced by OS in ARPE-19 cells. […] It is evident that 32:6 and 34:6 LCAF were able to induce a substantial amount (55 and 48% respectively) of neuroprotection compared to PD 146176 (22%) when the stressed cells were treated with 5 μm of 15-LOX-D1 inhibitor. It can be concluded that since PD146176 is the inhibitor of 15-lipooxygenase enzyme, it might be protecting the stressed RPE cells by accumulating neuroprotective agents inside the cells. (B) Comparison of cytoprotective capacities of NPD1, C32:6 and C34:6 VLC-PUFA on oxidative stress-induced apoptosis in 15-LOX-1 cells. Shown here is the comparison of neuroprotection in a 15-LOX-1-deficient cell line under oxidative stress with 32:6 and 34:6 VLC-PUFA along with NPD1. 32:6 and 34:6 LCAF were able to induce neuroprotection (45% and 40% respectively), as compared to oxidative stress (90%) under this condition. (C) Concentration dependent cytoprotection by C32:6 and C34:6 VLC-PUFA in oxidative-stress induced ARPE-19 cells. A concentration (50-500 nM) kinetic of cytoprotection induced by LCAF 32:6 and 34:6 in RPE cell culture under OS was shown here. […] We decided to use 250 nM concentrations of 32:6 and 34:6 LCAF in subsequent experiments. (D) Selected images of alive and dead cells from this study (control, OS, treatment with C32:6).
as §2, with “Evidence of cytoprotection by 32.6 and 34.6 VLC-PUFA in oxidative-stress induced ARPE-19 cells as detailed in (FIG. 4): (A) Cytoprotective” for “FIG. 4. (A) Cytoprotective”, “capacities of very long chain” for “capacities of long chain”
FIG. 5—(A) Effect of PD146176 on VLC-PUFA inhibited apoptosis induced by OS in ARPE-19 cells. […] It is evident that 32:6 and 34:6 LCAF were able to induce a substantial amount (55 and 48% respectively) of neuroprotection compared to PD 146176 (22%) when the stressed cells were treated with 5 μm of 15-LOX-D1 inhibitor. It can be concluded that since PD146176 is the inhibitor of 15-lipooxygenase enzyme, it might be protecting the stressed RPE cells by accumulating neuroprotective agents inside the cells. (B) Comparison of cytoprotective capacities of NPD1, C32:6 and C34:6 VLC-PUFA on oxidative stress-induced apoptosis in 15-LOX-1 cells. Shown here is the comparison of neuroprotection in a 15-LOX-1-deficient cell line under oxidative stress with 32:6 and 34:6 VLC-PUFA along with NPD1. 32:6 and 34:6 VLC-PUFA were able to induce neuroprotection (45% and 40% respectively), as compared to oxidative stress (90%) under this condition. (C) Concentration dependent cytoprotection by C32:6 and C34:6 VLC-PUFA in oxidative-stress induced ARPE-19 cells. A concentration (50-500 nM) kinetic of cytoprotection induced by VLC-PUFA 32:6 and 34:6 in RPE cell culture under OS was shown here. […] We decided to use 250 nM concentrations of 32:6 and 34:6 VLC-PUFA in subsequent experiments. […]

| Compound | effect on Bax upregulation by OS (FIG. 8B) (Bax) | activity against OS relative to the related VLC-PUFA (FIG. 4) ([1]; as sodium salts or methyl esters) | neuroprotection (FIG. 5B) ([1]; 15-LOX-1-deficient cell line under oxidative stress, compared to oxidative stress (90%)) | protection against cell death under oxidative stress conditions (FIG. 4B) ([1]; 15-LOX-D1 cells under oxidative stress) |
| --- | --- | --- | --- | --- |
| CC/C=C\C[C@H](O)\C=C/C=C/C=C/[C@H](O)C/C=C\C/C=C\CCCCCCCCCCCCCCC(=O)O [ELV2, (16Z,19Z,22R,23E,25E,27Z,29S,31Z)-22,29-dihydroxytetratriaconta-16,19,23,25,27,31-hexaenoic acid] | potent downregulation | more potent activity against OS than the related VLC-PUFA | – | – |
| CC/C=C\C/C=C\C/C=C\C/C=C\C/C=C\C/C=C\CCCCCCCCCCCCCCC(=O)O [C34:6] | – | – | 40% | protect against cell death |
